Test results taken from patent publication US20250255941A1 (priority 2021, published 2025).
Values joined by “and” are separate entries in the source; they are usually repeats but may differ in a detail not shown here. Equal values may be shown once.

Legend:
prostaglandin F2a = type: cell-based; settings: 5 μM
Keratinocytes = settings: 5 μM

`CS(=O)(=O)Nc1ccc([N+](=O)[O-])cc1OC1CCCCC1` [NS-398] was tested, and the “Absorbance value (405 nm), individual measurements (n=4)” value (prostaglandin F2a) was 0.6170 and 0.6000 and 0.6110 and 0.6220, the “PGF2alpha (pg/mL), individual measurements (n=4)” value (prostaglandin F2a) was 70.9 pg/mL and 86.8 pg/mL and 76.1 pg/mL and 66.8 pg/mL and the “PGF2alpha (pg/mL)/MTT, Mean” value (prostaglandin F2a) was 86.3 (pg/mL)/MTT. For the same compound, the “PGF2alpha (pg/mL)/MTT, individual measurements (n=4)” value (prostaglandin F2a) was 81.5 (pg/mL)/MTT and 101.6 (pg/mL)/MTT and 86.6 (pg/mL)/MTT and 75.4 (pg/mL)/MTT, the “prostaglandin F2a expression, % of control” value (prostaglandin F2a) was 9.3% and the “Cytotoxicity test (MTT), % of control” value (Keratinocytes) was 102.0%. For the same compound, the “Cytotoxicity test (MTT), Mean” value (Keratinocytes) was 0.8720.
